Experimental data reported in PubChem BioAssay AID328 (DTP/NCI, 2004).
Several values for one entry are separate records, joined by “and”; a condition that tells them apart may be missing. Identical values can stand only once. Toxic doses and inconclusive results are not listed.

System: BDF1 mice, P388 leukemia ip, median survival T/C
Experiment: NCI In Vivo Anticancer Drug Screen. Data for tumor model P388 Leukemia (intraperitoneal) in B6D2F1 (BDF1) mice
Details: endpoint: median survival time, higher = longer survival
Summary of the method: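 Mice carrying the transplantable tumour receive compound or vehicle. Survival is followed in each arm, and the treated measure is divided by the vehicle measure.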

[1] = dose: 50.0 mg/kg/injection, schedule: Q01DX009 (ip), vehicle: saline with Tween-80
[2] = dose: 100.0 mg/kg/injection, schedule: Q01DX009 (ip), vehicle: saline with Tween-80
[3] = dose: 100.0 mg/kg/injection, schedule: Q04DX003 (ip), vehicle: saline with Tween-80
[4] = dose: 200.0 mg/kg/injection, schedule: Q01DX009 (ip), vehicle: saline with Tween-80
[5] = dose: 200.0 mg/kg/injection, schedule: Q04DX003 (ip), vehicle: saline with Tween-80
[6] = dose: 400.0 mg/kg/injection, schedule: Q04DX003 (ip), vehicle: saline with Tween-80
[7] = dose: 25.0 mg/kg/injection, schedule: Q01DX009 (ip), vehicle: saline with Tween-80
[8] = dose: 50.0 mg/kg/injection, schedule: Q01DX009 (ip), vehicle: saline
[9] = dose: 100.0 mg/kg/injection, schedule: Q04DX003 (ip), vehicle: saline
[10] = dose: 200.0 mg/kg/injection, schedule: Q01DX009 (ip), vehicle: saline
[11] = dose: 200.0 mg/kg/injection, schedule: Q04DX003 (ip), vehicle: saline

With `CC(=O)OC(C)(C)/C=C/C(=O)[C@](C)(O)[C@H]1[C@H](O)C[C@@]2(C)[C@@H]3CC=C4[C@@H](C[C@H](O)C(=O)C4(C)C)[C@]3(C)C(=O)C[C@]12C` the T/C (dose: 0.07 mg/kg/injection, schedule: Q01DX009 (ip), vehicle: saline) was 95 % of control, the T/C (dose: 0.09 mg/kg/injection, schedule: Q04DX003 (ip), vehicle: saline) was 100 % of control and the T/C (dose: 0.12 mg/kg/injection, schedule: Q01DX009 (ip), vehicle: saline) was 115 % of control. For the same molecule, the T/C (dose: 0.18 mg/kg/injection, schedule: Q01DX009 (ip), vehicle: saline) was 105 % of control, the T/C (dose: 0.18 mg/kg/injection, schedule: Q01DX010 (ip), vehicle: carboxymethylcellulose (CMC)) was 120 % of control and the T/C (dose: 0.18 mg/kg/injection, schedule: Q04DX003 (ip), vehicle: saline) was 104 % of control. For the same molecule, the T/C (dose: 0.25 mg/kg/injection, schedule: Q01DX010 (ip), vehicle: carboxymethylcellulose (CMC)) was 113 % of control, the T/C (dose: 0.37 mg/kg/injection, schedule: Q01DX010 (ip), vehicle: carboxymethylcellulose (CMC)) was 100 % of control and the T/C (dose: 0.5 mg/kg/injection, schedule: Q01DX010 (ip), vehicle: carboxymethylcellulose (CMC)) was 118 % of control. The T/C (dose: 0.75 mg/kg/injection, schedule: Q01DX010 (ip), vehicle: carboxymethylcellulose (CMC)) was 115 % of control, the T/C (dose: 1.5 mg/kg/injection, schedule: Q01DX010 (ip), vehicle: carboxymethylcellulose (CMC)) was 115 % of control and the T/C (dose: 132.0 micrograms/kg/injection, schedule: Q01DX009 (ip), vehicle: saline) was 112 % of control. For the same molecule, the T/C (dose: 198.0 micrograms/kg/injection, schedule: Q01DX009 (ip), vehicle: saline) was 104 % of control.
`CC(=O)N1C(=O)NC(=O)C1(C)c1cccs1` (stereo unspecified) was tested, and the T/C [1] was 109 % of control, the T/C [2] was 111 % of control and the T/C [3] was 100 % of control. For the same molecule, the T/C [4] was 109 % of control, the T/C [5] was 90 % of control and the T/C [6] was 90 % of control.
In the case of `c1ccc(N=NC2=NN(c3ccccc3)CS2)cc1`, the T/C [7] is reported as 116 % of control and the T/C [1] is reported as 116 % of control.
`CCCNC(=O)Nc1cccc(C(F)(F)F)c1` was tested, and the T/C [3] was 104 % of control, the T/C [5] was 109 % of control and the T/C [6] was 100 % of control.
With `CC1CCN(SSc2nc3ccccc3s2)CC1` the T/C [1] was 110 % of control and the T/C [2] was 110 % of control.
In the case of `CCCC(O)C1CCCCC1O` (stereo unspecified), the T/C [3] is reported as 100 % of control, the T/C [5] is reported as 100 % of control and the T/C [6] is reported as 100 % of control.
`O=[N+]([O-])c1ccc(S(=O)c2ccc([N+](=O)[O-])c3nonc23)cc1` (stereo unspecified) was tested, and the T/C (dose: 15.0 mg/kg/injection, schedule: Q01DX009 (ip), vehicle: saline with Tween-80) was 90 % of control and the T/C (dose: 30.0 mg/kg/injection, schedule: Q01DX009 (ip), vehicle: saline with Tween-80) was 97 % of control.
In the case of `CC1(C)N=C(N)N=C(N)N1c1ccc(F)c(C(F)(F)F)c1`, the T/C (dose: 3.12 mg/kg/injection, schedule: Q01DX009 (ip), vehicle: saline) is reported as 120 % of control, the T/C (dose: 12.5 mg/kg/injection, schedule: Q01DX009 (ip), vehicle: saline) is reported as 169 % of control and 189 % of control and the T/C (dose: 16.0 mg/kg/injection, schedule: Q01DX009 (ip), vehicle: saline) is reported as 216 % of control. The T/C (dose: 25.0 mg/kg/injection, schedule: Q01DX009 (ip), vehicle: saline) was 245 % of control and 87 % of control and 191 % of control and the T/C [8] was 216 % of control.
With `CC([NH-])C(=O)O.O=C(O)CN(CC(=O)O)CC(=O)O.[Co+2]` the T/C [8] was 110 % of control and 113 % of control, the T/C (dose: 66.0 mg/kg/injection, schedule: Q01DX009 (ip), vehicle: saline) was 114 % of control and the T/C [9] was 87 % of control. For the same molecule, the T/C (dose: 150.0 mg/kg/injection, schedule: Q01DX009 (ip), vehicle: saline) was 104 % of control, the T/C [10] was 104 % of control and the T/C [11] was 104 % of control. The T/C (dose: 400.0 mg/kg/injection, schedule: Q04DX003 (ip), vehicle: saline) was 91 % of control.
`CN(C)C` was tested, and the T/C (dose: 50.0 mg/kg/injection, schedule: Q04DX003 (ip), vehicle: saline) was 100 % of control, the T/C [9] was 100 % of control and the T/C [11] was 109 % of control.
`CC(=O)[C@H]1CC[C@H]2[C@@H]3CCC4=CC(=O)[C@H](C)C[C@]4(C)[C@@]3(F)[C@@H](O)C[C@]12C` was tested, and the T/C [7] was 100 % of control, the T/C [1] was 100 % of control and the T/C [2] was 95 % of control and 104 % of control. For the same molecule, the T/C [3] was 100 % of control, the T/C [5] was 100 % of control and the T/C [6] was 90 % of control.
In the case of `Cc1ccccc1NC(=O)c1ccc([N+](=O)[O-])cc1`, the T/C [3] is reported as 96 % of control, the T/C [5] is reported as 108 % of control and the T/C [6] is reported as 96 % of control.
In the case of `CCCCCC1=NC(C)(C(=O)OC)OO1` (stereo unspecified), the T/C [7] is reported as 114 % of control and the T/C [1] is reported as 112 % of control.
With `CC[C@@]1(O)C[C@H](OC2CC(N(C)C)C(OC3CC4OC5CC(=O)C(C)OC5OC4C(C)O3)C(C)O2)c2c(cc3c(c2O)C(=O)c2c(O)cccc2C3=O)[C@H]1C(=O)OC` (stereo partly specified) the T/C (dose: 0.25 mg/kg/injection, schedule: Q01DX009 (ip), vehicle: water) was 109 % of control and the T/C (dose: 4.0 mg/kg/injection, schedule: Q01DX009 (ip), vehicle: water) was 86 % of control.
`CCCCCCCCCCCCCCCCCSCCCCCSCCCCCCCCCCCCCCCCC` was tested, and the T/C (dose: 100.0 mg/kg/injection, schedule: Q01DX001 (ip), vehicle: saline with Tween-80) was 90 % of control and the T/C (dose: 400.0 mg/kg/injection, schedule: Q01DX001 (ip), vehicle: saline with Tween-80) was 86 % of control.
`O=C(NC(=O)c1c(F)cccc1F)Nc1nc(-c2ccccc2)cs1` was tested, and the T/C [7] was 93 % of control, the T/C [1] was 100 % of control and the T/C [2] was 90 % of control.
With `CC(C)C1(C(=O)NN)OC2(O)CCCCCN2C1=O` (stereo unspecified) the T/C (dose: 100.0 mg/kg/injection, schedule: Q01DX009 (ip), vehicle: saline) was 90 % of control, the T/C [10] was 90 % of control and the T/C (dose: 400.0 mg/kg/injection, schedule: Q01DX009 (ip), vehicle: saline) was 100 % of control.
For `c1ccc(CN(CCNc2ccccc2)c2ccccc2)cc1`, the T/C (dose: 0.78 mg/kg/injection, schedule: Q01DX009 (ip), vehicle: water) was 106 % of control, the T/C (dose: 1.56 mg/kg/injection, schedule: Q01DX009 (ip), vehicle: water) was 104 % of control and the T/C (dose: 3.12 mg/kg/injection, schedule: Q01DX009 (ip), vehicle: water) was 108 % of control. The T/C (dose: 6.25 mg/kg/injection, schedule: Q01DX009 (ip), vehicle: water) was 104 % of control, the T/C (dose: 12.5 mg/kg/injection, schedule: Q01DX009 (ip), vehicle: water) was 106 % of control and the T/C (dose: 25.0 mg/kg/injection, schedule: Q01DX009 (ip), vehicle: water) was 92 % of control. For the same molecule, the T/C (dose: 50.0 mg/kg/injection, schedule: Q01DX009 (ip), vehicle: water) was 92 % of control, the T/C (dose: 50.0 mg/kg/injection, schedule: Q04DX003 (ip), vehicle: water) was 100 % of control and the T/C (dose: 100.0 mg/kg/injection, schedule: Q01DX009 (ip), vehicle: water) was 115 % of control. The T/C (dose: 100.0 mg/kg/injection, schedule: Q04DX003 (ip), vehicle: water) was 98 % of control, the T/C (dose: 200.0 mg/kg/injection, schedule: Q01DX009 (ip), vehicle: water) was 97 % of control and the T/C (dose: 200.0 mg/kg/injection, schedule: Q04DX003 (ip), vehicle: water) was 103 % of control.
In the case of `Cn1ccn(C2CCCCC2)c1=O`, the T/C (dose: 25.0 mg/kg/injection, schedule: Q04DX003 (ip), vehicle: saline with Tween-80) is reported as 95 % of control and the T/C (dose: 50.0 mg/kg/injection, schedule: Q04DX003 (ip), vehicle: saline with Tween-80) is reported as 100 % of control.
`O=C1CC(SC(=S)C2CCCC2=O)C(=O)N1` (stereo unspecified) was tested, and the T/C [1] was 100 % of control, the T/C [2] was 110 % of control and the T/C [4] was 89 % of control.
In the case of `CCOC(=O)c1c[nH]c(=O)c([N+](=O)[O-])c1O`, the T/C [2] is reported as 96 % of control, the T/C [3] is reported as 108 % of control and the T/C [5] is reported as 95 % of control. For the same molecule, the T/C [6] was 112 % of control.
For `CN=C(NCCCOC)c1ccc(NC(=O)Nc2ccc(NC(=O)Nc3ccc(C(=NC)NCCCOC)cc3)cc2)cc1`, the T/C (dose: 6.25 mg/kg/injection, schedule: Q01DX005 (ip), vehicle: Klucel (hydroxypropylcellulose) (HPC)) was 104 % of control, the T/C (dose: 12.5 mg/kg/injection, schedule: Q01DX005 (ip), vehicle: Klucel (hydroxypropylcellulose) (HPC)) was 108 % of control and the T/C (dose: 25.0 mg/kg/injection, schedule: Q01DX005 (ip), vehicle: Klucel (hydroxypropylcellulose) (HPC)) was 115 % of control. The T/C (dose: 50.0 mg/kg/injection, schedule: Q01DX005 (ip), vehicle: Klucel (hydroxypropylcellulose) (HPC)) was 121 % of control and the T/C (dose: 100.0 mg/kg/injection, schedule: Q01DX005 (ip), vehicle: Klucel (hydroxypropylcellulose) (HPC)) was 107 % of control.
For `O=C(Nc1ccc(-c2cn3ccccc3n2)cc1)c1cc(Br)ccc1O`, the T/C (dose: 12.5 mg/kg/injection, schedule: Q01DX009 (ip), vehicle: saline with Tween-80) was 100 % of control, the T/C [7] was 91 % of control and the T/C [1] was 107 % of control.
